# Patent US8802597B2, “Herbicidal pyrimidines” (E I du Pont de Nemours and Company, priority 2003, dated 2014)
# Experiments:
# Type in all cases: in vivo
# [1] = tested on: blackgrass (Alopecurus myosuroides); assay: Test B postemergence; settings: scale 0 to 100 (0 no effect, 100 complete control)
# How it was run: (§1)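 Formulation: non-phytotoxic solvent blend with surfactant. Timing: preemergence on seeds, postemergence at 1- to 4-leaf (2–18 cm). Assessment: visual, 0–100 against controls, after 13–15 days' greenhouse growth.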
# wild oat (Avena fatua) = assay: Test B postemergence; settings: scale 0 to 100 (0 no effect, 100 complete control)
# How it was run: as §1
# [2] = tested on: umbrella sedge (Cyperus difformis); assay: Test B flooded paddy test; settings: Flood, scale 0 to 100
# How it was run: (§2)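 Visual injury scoring (0 = no effect, 100 = complete control) versus controls made 13 to 15 days after treatment in the greenhouse. Test species were grown in flooded paddy to the 2-leaf stage: rice, barnyardgrass, umbrella sedge, duck salad.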
# [3] = tested on: barnyardgrass (Echinochloa crus-galli); assay: Test B flooded paddy test; settings: Flood, scale 0 to 100
# How it was run: as §2
# [4] = tested on: duck salad (Heteranthera limosa); assay: Test B flooded paddy test; settings: Flood, scale 0 to 100
# How it was run: as §2
# rice (Oryza sativa) = assay: Test B flooded paddy test; settings: Flood, scale 0 to 100
# How it was run: as §2
# [5] = tested on: velvetleaf (Abutilon theophrasti); assay: Test B pre/postemergence; settings: for Velvetleaf plant response rating: Postemergence; for Plant response rating, Velvetleaf: Preemergence
# How it was run: as §1
# [6] = tested on: Surinam grass (Brachiaria decumbens); assay: Test B pre/postemergence; settings: for Surinam Grass plant response rating: Postemergence; for Plant response rating, Surinam Grass: Preemergence
# How it was run: as §1
# [7] = tested on: lambsquarters (Chenopodium album); assay: Test B pre/postemergence; settings: for Lambsquarters plant response rating: Postemergence; for Plant response rating, Lambsquarters: Preemergence
# How it was run: as §1
# [8] = tested on: wheat (Triticum aestivum); assay: Test B pre/postemergence; settings: for Wheat plant response rating: Postemergence; for Plant response rating, Wheat: Preemergence
# How it was run: as §1
# [9] = tested on: barnyardgrass (Echinochloa crus-galli); assay: Test B pre/postemergence; settings: for Barnyardgrass plant response rating: Postemergence; for Plant response rating, Barnyardgrass: Preemergence
# How it was run: as §1
# [10] = tested on: cocklebur (Xanthium strumarium); assay: Test B pre/postemergence; settings: for Cocklebur plant response rating: Postemergence; for Plant response rating, Cocklebur: Preemergence
# How it was run: as §1
# [11] = tested on: giant foxtail (Setaria faberii); assay: Test B pre/postemergence; settings: for Foxtail, Giant plant response rating: Postemergence; for Plant response rating, Foxtail, Giant: Preemergence
# How it was run: as §1
# [12] = tested on: pigweed (Amaranthus retroflexus); assay: Test B pre/postemergence; settings: for Pigweed plant response rating: Postemergence; for Plant response rating, Pigweed: Preemergence
# How it was run: as §1
# [13] = tested on: morningglory (Ipomoea coccinea); assay: Test B pre/postemergence; settings: for Morningglory plant response rating: Postemergence; for Plant response rating, Morningglory: Preemergence
# How it was run: as §1
# corn (Zea mays) = assay: Test B pre/postemergence; settings: for Corn plant response rating: Postemergence; for Plant response rating, Corn: Preemergence
# How it was run: as §1
# [14] = tested on: crabgrass (Digitaria sanguinalis); assay: Test B pre/postemergence; settings: for Crabgrass plant response rating: Postemergence; for Plant response rating, Crabgrass: Preemergence
# How it was run: as §1
# [15] = 62 g ai/ha, scale 0 to 100 (0 no effect, 100 complete control)
# [16] = 125 g ai/ha, scale 0 to 100 (0 no effect, 100 complete control)
# [17] = 62 g ai/ha, scale 0 to 100, 0 no effect, 100 complete control
smiles,measurement,setting,value
"Nc1nc(C2CC2)nc(C(=O)O)c1Cl [Compound 135, 6-amino-5-chloro-2-cyclopropyl-4-pyrimidinecarboxylic acid]",Blackgrass plant response rating,[1]; 62 g ai/ha,60
same,Blackgrass plant response rating,[1]; 125 g ai/ha,70
same,"Oat, Wild plant response rating",wild oat (Avena fatua); 62 g ai/ha,60
same,"Oat, Wild plant response rating",wild oat (Avena fatua); 125 g ai/ha,60
same,"Plant response rating, Sedge, Umbrella",[2]; 125 g ai/ha,70
same,"Plant response rating, Sedge, Umbrella",[2]; 500 g ai/ha,80
same,"Plant response rating, Barnyardgrass",[3]; 125 g ai/ha,30
same,"Plant response rating, Barnyardgrass",[3]; 500 g ai/ha,80
same,"Plant response rating, Ducksalad",[4]; 125 g ai/ha,60
same,"Plant response rating, Ducksalad",[4]; 500 g ai/ha,90
same,"Plant response rating, Rice",rice (Oryza sativa); 125 g ai/ha,20
same,"Plant response rating, Rice",rice (Oryza sativa); 500 g ai/ha,60
same,Velvetleaf plant response rating,[5]; [15],100
same,Velvetleaf plant response rating,[5]; [16],100
same,"Plant response rating, Velvetleaf",[5]; [17],90
same,"Plant response rating, Velvetleaf",[5]; [16],100
same,Surinam Grass plant response rating,[6]; [15],80
same,Surinam Grass plant response rating,[6]; [16],80
same,"Plant response rating, Surinam Grass",[6]; [17],80
same,"Plant response rating, Surinam Grass",[6]; [16],90
same,Lambsquarters plant response rating,[7]; [15],100
same,Lambsquarters plant response rating,[7]; [16],100
same,"Plant response rating, Lambsquarters",[7]; [17],100
same,"Plant response rating, Lambsquarters",[7]; [16],100
same,Wheat plant response rating,[8]; [15],40
same,Wheat plant response rating,[8]; [16],60
same,"Plant response rating, Wheat",[8]; [17],70
same,"Plant response rating, Wheat",[8]; [16],90
same,Barnyardgrass plant response rating,[9]; [15],70
same,Barnyardgrass plant response rating,[9]; [16],90
same,"Plant response rating, Barnyardgrass",[9]; [17],70
same,"Plant response rating, Barnyardgrass",[9]; [16],90
same,Cocklebur plant response rating,[10]; [15],100
same,Cocklebur plant response rating,[10]; [16],100
same,"Plant response rating, Cocklebur",[10]; [17],100
same,"Plant response rating, Cocklebur",[10]; [16],100
same,"Foxtail, Giant plant response rating",[11]; [15],80
same,"Foxtail, Giant plant response rating",[11]; [16],80
same,"Plant response rating, Foxtail, Giant",[11]; [17],60
same,"Plant response rating, Foxtail, Giant",[11]; [16],90
same,Pigweed plant response rating,[12]; [15],100
same,Pigweed plant response rating,[12]; [16],100
same,"Plant response rating, Pigweed",[12]; [17],100
same,"Plant response rating, Pigweed",[12]; [16],100
same,Morningglory plant response rating,[13]; [15],100
same,Morningglory plant response rating,[13]; [16],100
same,"Plant response rating, Morningglory",[13]; [17],100
same,"Plant response rating, Morningglory",[13]; [16],100
same,Corn plant response rating,corn (Zea mays); [15],50
same,Corn plant response rating,corn (Zea mays); [16],80
same,"Plant response rating, Corn",corn (Zea mays); [17],50
same,"Plant response rating, Corn",corn (Zea mays); [16],80
same,Crabgrass plant response rating,[14]; [15],60
same,Crabgrass plant response rating,[14]; [16],70
same,"Plant response rating, Crabgrass",[14]; [17],80
same,"Plant response rating, Crabgrass",[14]; [16],90
Nc1nc(-c2ccc(Br)cc2)nc(C(=O)O)c1Br [Compound 136],Blackgrass plant response rating,[1]; 62 g ai/ha,70
same,Blackgrass plant response rating,[1]; 125 g ai/ha,70
same,"Oat, Wild plant response rating",wild oat (Avena fatua); 62 g ai/ha,20
same,"Oat, Wild plant response rating",wild oat (Avena fatua); 125 g ai/ha,50
same,"Plant response rating, Sedge, Umbrella",[2]; 125 g ai/ha,90
same,"Plant response rating, Sedge, Umbrella",[2]; 500 g ai/ha,90
same,"Plant response rating, Barnyardgrass",[3]; 125 g ai/ha,0
same,"Plant response rating, Barnyardgrass",[3]; 500 g ai/ha,20
same,"Plant response rating, Ducksalad",[4]; 125 g ai/ha,90
same,"Plant response rating, Ducksalad",[4]; 500 g ai/ha,90
same,"Plant response rating, Rice",rice (Oryza sativa); 125 g ai/ha,0
same,"Plant response rating, Rice",rice (Oryza sativa); 500 g ai/ha,40
same,Velvetleaf plant response rating,[5]; [15],80
same,Velvetleaf plant response rating,[5]; [16],90
same,"Plant response rating, Velvetleaf",[5]; [17],60
same,"Plant response rating, Velvetleaf",[5]; [16],80
same,Surinam Grass plant response rating,[6]; [15],70
same,Surinam Grass plant response rating,[6]; [16],80
same,"Plant response rating, Surinam Grass",[6]; [17],10
same,"Plant response rating, Surinam Grass",[6]; [16],50
same,Lambsquarters plant response rating,[7]; [15],100
same,Lambsquarters plant response rating,[7]; [16],100
same,"Plant response rating, Lambsquarters",[7]; [17],90
same,"Plant response rating, Lambsquarters",[7]; [16],100
same,Wheat plant response rating,[8]; [15],20
same,Wheat plant response rating,[8]; [16],60
same,"Plant response rating, Wheat",[8]; [17],50
same,"Plant response rating, Wheat",[8]; [16],70
same,Barnyardgrass plant response rating,[9]; [15],70
same,Barnyardgrass plant response rating,[9]; [16],90
same,"Plant response rating, Barnyardgrass",[9]; [17],30
same,Cocklebur plant response rating,[10]; [15],90
same,Cocklebur plant response rating,[10]; [16],100
same,"Plant response rating, Cocklebur",[10]; [17],40
same,"Plant response rating, Cocklebur",[10]; [16],70
same,"Foxtail, Giant plant response rating",[11]; [15],60
same,"Foxtail, Giant plant response rating",[11]; [16],70
same,"Plant response rating, Foxtail, Giant",[11]; [17],10
same,"Plant response rating, Foxtail, Giant",[11]; [16],50
same,Pigweed plant response rating,[12]; [15],90
same,Pigweed plant response rating,[12]; [16],100
same,"Plant response rating, Pigweed",[12]; [17],80
same,"Plant response rating, Pigweed",[12]; [16],100
same,Morningglory plant response rating,[13]; [15],40
same,Morningglory plant response rating,[13]; [16],100
same,"Plant response rating, Morningglory",[13]; [17],10
same,"Plant response rating, Morningglory",[13]; [16],40
same,Corn plant response rating,corn (Zea mays); [15],40
same,Corn plant response rating,corn (Zea mays); [16],70
same,"Plant response rating, Corn",corn (Zea mays); [17],0
same,"Plant response rating, Corn",corn (Zea mays); [16],0
same,Crabgrass plant response rating,[14]; [15],70
same,Crabgrass plant response rating,[14]; [16],80
same,"Plant response rating, Crabgrass",[14]; [17],70
same,"Plant response rating, Crabgrass",[14]; [16],80
